# According to patent US4888049A, “Synergist for biocide” (Kao Corporation, priority 1986, dated 1989):
# Test system: Crabgrasses
# Test: Herbicidal effect of Karmex D (DCMU) herbicide with or without compound 6 (Example 6)
# Type: in vivo, crabgrass
# Settings: compound 6, where added, 2000 ppm in the diluted solution
# Description: Crabgrasses (30 crabgrasses per pot) which were in a trifoliate stage were treated with the above herbicide in a predetermined concentration. 7 days after the treatment, the weight of survival at the aerical part and the percentage herbicidal effect relative to the untreated section (%) were calculated. 50% herbicidal concentration was also determined.
# The above-mentioned preparation was diluted with water to have a predetermined concentration.
compound,measurement,setting,value
CCCCCCCCC(CCCCCC)C[N+](C)(C)Cc1ccc(Cl)cc1 (centres unmarked) [compound 6],herbicidal effect (%),active ingredient (DCMU) concn. 125 ppm,39%
same,herbicidal effect (%),active ingredient (DCMU) concn. 250 ppm,55%
same,herbicidal effect (%),active ingredient (DCMU) concn. 500 ppm,77%
same,herbicidal effect (%),active ingredient (DCMU) concn. 1000 ppm,91%
same,herbicidal effect (%),active ingredient (DCMU) concn. 2000 ppm,100%
